Patent US4754059A, “Omega cycloalkyl prostaglandins” (G. D. Searle & Co., priority 1984, dated 1988)

What was measured:
[1] = Diarrheogenic activity in rats; assay type: in vivo, Charles River rats
Method: Diarrhea is an undesirable side effect commonly associated with antisecretory and cytoprotective prostaglandins.
Groups of six adult male Charles River rats, weight range 180 to 200 grams, are fasted for 24 hours prior to administering the test substance. The prostaglandin to be tested is administered intragastrically in iso-osmotic phosphate buffer at a volume of 10 ml/kg at doses ranging from 100 to 3000 microgram/kg. Control animals receive only the vehicle. The rats are placed in individual wire mesh cages and the trays lined with brown paper. Diarrhea is assessed at hourly intervals on an all or none basis for up to eight hours after administration of the prostaglandin. Diarrhea is defined as any loose or watery stool. ED50 values are assessed for each hourly diarrheogenic response.

[2] = system: lower esophageal sphincter; experiment: Contraction of the lower esophageal sphincter; settings: no method given
gastric secretions = experiment: Dog gastric antisecretory activity (histamine-stimulated, Thomas-type gastric cannula); assay type: in vivo, beagle dogs; settings: for ED50: Canis lupus familiaris, po, histamine stimulation
Method: The standard test used to detect gastric antisecretory activity is described as follows.
Adult female beagle dogs weighing 6-11 kg. are prepared with whole stomach simple Thomas-type gastric cannulas.
Following full recovery from the surgical implantation of the gastric cannula, the dogs are trained to stand quietly, though fully conscious, in Pavlov-type dog restraining slings and are accustomed to intravenous histamine infusion.
Experiments are initiated by depriving dogs of food, but not water, for 18 hours. With an initial infusion of 0.15M sodium chloride, at a constant rate of 6.5 ml/hr, gastric secretions collected in plastic bottles affixed to the cannula, are taken at 15 minute intervals and measured for volume to the nearest 0.1 ml. Following a 30-45 minute basal secretion period, the collection bottles are removed, dosing plugs inserted, and compound administered. A 3.0 ml saline wash follows immediately.
After the end of a 30 minute drug absorption period the stomachs are emptied, collection bottles again attached, and the collections resumed at 30 minute intervals. Simultaneously, the saline infusion is replaced with a continuous intravenous infusion of histamine dihydrochloride in saline at 15 ug/kg/hr for four hours. Gastric samples are analysed for pH and titratable acidity determinations.
An analysis of the data for each measured or derived variable compares observations recorded following treatment with variables obtained for the same group of animals receiving histamine stimulation alone. Three parameters, gastric juice volume (ml/30 min), acid concentration (mEq/L), and total acid output (mEq/30 min) are analyzed individually. The data thus obtained are analyzed using interval-by-interval paired Student's t-test or two-way analysis of variance to achieve an indication of potency and duration of action. Percentage inhibition is calculated using pooled mean values for the four hour treatment period. Duration of activity is defined as the length of time of significant inhibition.

[3] = intragastric administration, dog

| SMILES | diarrheogenic properties (in words) [1] | property of contracting the lower esophageal sphincter [2] | antisecretory activity (in words) (gastric secretions) | ED50 (gastric secretions; [3]) | Dog antisecretory activity (in words) (gastric secretions; intragastric administration, dog, doses 0.3 and 1.0) |
| --- | --- | --- | --- | --- | --- |
| COC(=O)CC/C=C\CC[C@H]1C(=O)C[C@@H](O)[C@@H]1/C=C/CC(C)(O)CCC1CCCC1 (relative stereo) [Example 2] | low | contracting the lower esophageal sphincter | potent | 0.3 µg/kg |  |
| COC(=O)CCC/C=C\C[C@H]1C(=O)C[C@@H](O)[C@@H]1/C=C/CC(C)(O)CCC1CCCC1 (relative stereo) [Compound II, reference compound] |  |  |  |  | Inactive at 0.3 and 1.0 |
| COC(=O)CC/C=C\CC[C@H]1C(=O)C[C@@H](O)[C@@H]1/C=C/CC(C)(O)CCC1(C)CC1 (relative stereo) [Example 7, methyl 7-[3α-hydroxy-2β-4-hydroxy-4-methyl-6-(1-methylcyclopropyl)-1-trans-hexenyl-5-oxocyclopentane]-1α-hept-4-cis-enoate] |  |  |  | 0.3 µg/kg |  |
| COC(=O)CC/C=C\CC[C@H]1C(=O)C[C@@H](O)[C@@H]1/C=C/CC(C)(O)CCC1CC1 (relative stereo) [Example 1] |  |  |  | 0.2 µg/kg |  |
| COC(=O)CC/C=C\CC[C@H]1C(=O)C[C@@H](O)[C@@H]1/C=C/CC(C)(O)CCC1CCC1 (relative stereo) [Example 3] | low |  | potent |  |  |
